US9840478B2 (MERCK SHARP & DOHME CORP., priority 2013, dated 2017)

System: HIV-1 (H9IIIB strain)
Experiment: Cell-based HIV infection assay using a reporter (Cell-Based), MT4-GFP cells
Details: Human immunodeficiency virus 1, MT4-GFP cells infected with HIV-1 H9IIIB; 50% normal human serum; mean of at least two independent experiments; read-out: Cell-based IP
How it was run: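 MT4-GFP cells (HIV LTR-driven GFP) infected 24 h with HIV-1 H9IIIB at low MOI, then washed and plated with compounds in RPMI + 50% normal human serum, 0.4% DMSO final. Green cells counted at 24 and 48 h; R0 = 48 h/24 h ratio, inhibition normalized to DMSO and triple-drug control; IC50 from 4-parameter fit.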

Row | Compound | IC50
1 | C[C@@H]1C[C@](c2ccc(Cl)cc2)([C@H](N)C(=O)Nc2cccc(F)c2CC[C@H]2CNC[C@H](C)N2S(=O)(=O)c2ccccc2)C[C@H](C)O1 [Example 300, (S)-2-amino-2-((2R,4r,6S)-4-(4-chlorophenyl)-2,6-dimethyltetrahydro-2H-pyran-4-yl)-N-(3-fluoro-2-(2-((2S,6S)-6-methyl-1-(phenylsulfonyl)piperazin-2-yl)ethyl)phenyl)acetamide] | 0.098 µM
2 | C[C@@H]1C[C@](c2ccc(Cl)cc2)([C@H](N)C(=O)Nc2cccc(F)c2CC[C@H]2CNC[C@@H](C)N2S(=O)(=O)c2ccccc2)C[C@H](C)O1 [Example 301, (S)-2-amino-2-((2R,4r,6S)-4-(4-chlorophenyl)-2,6-dimethytetrahydro-2H-pyran-4-yl)-N-(3-fluoro-2-(2-((2S,6R)-6-methyl-1-(phenylsulfonyl)piperazin-2-yl)ethyl)phenyl)acetamide] | 0.48 µM
3 | O=C(C[C@@H](c1ccc(F)cc1)c1cc(F)cc(F)c1)Nc1cncc(F)c1CC[C@H]1CNCCN1S(=O)(=O)CC1CC1 [Example 302, (3S)-N-[4-(2-{(2S)-1-[(cyclopropylmethyl)sul-fonyl]piperazin-2-yl}ethyl)-5-fluoropyridin-3-yl]-3-(3,5-difluorophenyl)-3-(4-fluorophenyl)propanamide] | 0.024 µM
4 | O=C(C[C@@H](c1ccc(F)cc1)c1cc(F)cc(F)c1)Nc1cncc(F)c1CC[C@H]1CNCCN1S(=O)(=O)c1ccccn1 [Example 304, (3S)-3-(3,5-difluorophenyl)-3-(4-fluorophenyl)-N-(5-fluoro-4-{2-[(2S)-1-(pyridin-2-ylsulfonyl)piperazin-2-yl]ethyl}pyridin-3-yl)propanamide] | 0.0036 µM
5 | O=C(C[C@@H](c1ccc(F)cc1)c1cc(F)cc(F)c1)Nc1cncc(F)c1CC[C@H]1CNCCN1S(=O)(=O)c1cccnc1 [Example 305, (3S)-3-(3,5-difluorophenyl)-3-(4-fluorophenyl)-N-(5-fluoro-4-{2-[(2S)-1-(pyridin-3-ylsulfonyl)piperazin-2-yl]ethyl}pyridin-3-yl)propanamide] | 0.0082 µM
6 | Cn1ccc(S(=O)(=O)N2CCNC[C@@H]2CCc2c(F)cncc2NC(=O)C[C@@H](c2ccc(F)cc2)c2cc(F)cc(F)c2)n1 [Example 306, (3S)-3-(3,5-difluorophenyl)-N-[5-fluoro-4-(2-{(2S)-1-[(1-methyl-1H-pyrazol-3-yl)sulfonyl]piperazin-2-yl}ethyl)pyridin-3-yl]-3-(4-fluorophenyl)propanamide] | 0.0065 µM
7 | Nc1ccc(S(=O)(=O)N2CCNC[C@@H]2CCc2c(F)cncc2NC(=O)C[C@@H](c2ccc(F)cc2)c2cc(F)cc(F)c2)cn1 [Example 307, (3S)-N-[4-(2-{(2S)-1-[(6-aminopyridin-3-yl)sulfonyl]piperazin-2-yl}ethyl)-5-fluoropyridin-3-yl]-3-(3,5-difluorophenyl)-3-(4-fluorophenyl)propanamide] | 0.13 µM
8 | O=C1COc2ccc(S(=O)(=O)N3CCNC[C@@H]3CCc3c(F)cncc3NC(=O)C[C@@H](c3ccc(F)cc3)c3cc(F)cc(F)c3)cc2N1 [Example 308, (3S)-3-(3,5-difluorophenyl)-N-[5-fluoro-4-(2-{(2S)-1-[(3-oxo-3,4-dihydro-2H-1,4-benzoxazin-6-yl)sulfonyl]piperazin-2-yl}ethyl)pyridin-3-yl]-3-(4-fluorophenyl)propanamide] | 0.18 µM
9 | CC(=O)Nc1nc(S(=O)(=O)N2CCNC[C@@H]2CCc2c(F)cncc2NC(=O)C[C@@H](c2ccc(F)cc2)c2cc(F)cc(F)c2)c(C)s1 [Example 309, (3S)-N-(4-{2-[(2S)-1-{[2-(acetylamino)-5-methyl-1,3-thiazol-4-yl]sulfonyl}piperazin-2-yl]ethyl}-5-fluoropyridin-3-yl)-3-(3,5-difluorophenyl)-3-(4-fluorophenyl)propanmide] | 0.14 µM
